Source: patent publication US11685732B2, “MYST family histone acetyltransferase inhibitors” (Epizyme, Inc., priority 2017, dated 2023)

Experiments:
KAT-8 = KAT-8 (Homo sapiens (Human), UniProt Q9H7Z6); experiment: KAT-8 biochemical inhibition assay (SAMDI mass spectrometry)
Summary of the method: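 Compounds in 2% DMSO pre-incubated with 12.5 nM enzyme in 50 mM Tris pH 8.0 with Tween20, gelatin and 1 mM DTT. Then 1 μM peptide and 5 μM acetyl-CoA were added, 90 min at 25 °C; formic acid stop and SAMDI-TOF mass spectrometry for IC50.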

KAT-5 = KAT-5 (Homo sapiens (Human), UniProt Q92993); experiment: KAT-5 biochemical inhibition assay (SAMDI mass spectrometry)
Summary of the method: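 KAT-5 at 9 nM final was preincubated with serially diluted compound (2% DMSO) in 50 mM Tris pH 8.0 with 1 mM DTT. Reaction ran with 1 μM peptide substrate and 0.5 μM acetyl-CoA for 90 min at 25° C, was quenched with 0.5% formic acid, and was read by SAMDI-TOF mass spectrometry.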

KAT-7 = KAT-7 (Homo sapiens (Human), UniProt O95251); experiment: KAT-7 biochemical inhibition assay (SAMDI mass spectrometry)
Summary of the method: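 KAT-7 (6 nM) was pre-incubated with serially diluted compound (2% DMSO) in Tris pH 8.0 with DTT. Reaction with 1 μM peptide and 2 μM acetyl-CoA ran 120 min at 25 °C and was stopped with 0.5% formic acid. Acetylation was read by SAMDI-TOF mass spectrometry to give IC50.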

KAT-6A = KAT-6A (Homo sapiens (Human), UniProt Q92794); experiment: KAT-6A biochemical inhibition assay (SAMDI mass spectrometry)
Summary of the method: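 Enzyme (12.5 nM final) pre-incubated with serially diluted compounds (2% DMSO final) in 50 mM Tris pH 8.0 with Tween20, gelatin and 1 mM DTT. Reaction started with 1 μM peptide substrate and 1 μM acetyl-CoA, run 90 min at 25 °C, quenched with 0.5% formic acid, read by SAMDI-TOF mass spectrometry; IC50 derived.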

Chain of KAT-7 (O95251 other isoform, or with tags, fused parts or gaps): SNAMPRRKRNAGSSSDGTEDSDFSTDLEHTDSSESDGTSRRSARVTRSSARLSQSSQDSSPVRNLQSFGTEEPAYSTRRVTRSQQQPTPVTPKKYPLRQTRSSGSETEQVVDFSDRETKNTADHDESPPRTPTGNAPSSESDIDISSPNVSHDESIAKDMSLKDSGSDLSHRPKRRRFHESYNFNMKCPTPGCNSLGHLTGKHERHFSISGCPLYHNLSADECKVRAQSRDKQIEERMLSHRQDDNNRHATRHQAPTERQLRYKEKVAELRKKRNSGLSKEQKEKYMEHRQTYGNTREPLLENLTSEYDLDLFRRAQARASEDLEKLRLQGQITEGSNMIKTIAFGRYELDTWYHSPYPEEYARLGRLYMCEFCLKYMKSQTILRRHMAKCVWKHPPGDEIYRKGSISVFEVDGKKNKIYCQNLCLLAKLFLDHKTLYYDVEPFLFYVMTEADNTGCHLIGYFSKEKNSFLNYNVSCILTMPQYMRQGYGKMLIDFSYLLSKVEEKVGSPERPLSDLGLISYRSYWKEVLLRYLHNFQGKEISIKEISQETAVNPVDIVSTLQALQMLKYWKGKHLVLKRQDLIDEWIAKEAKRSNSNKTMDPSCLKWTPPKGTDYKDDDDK
Chain of KAT-6A (Q92794 other isoform, or with tags, fused parts or gaps): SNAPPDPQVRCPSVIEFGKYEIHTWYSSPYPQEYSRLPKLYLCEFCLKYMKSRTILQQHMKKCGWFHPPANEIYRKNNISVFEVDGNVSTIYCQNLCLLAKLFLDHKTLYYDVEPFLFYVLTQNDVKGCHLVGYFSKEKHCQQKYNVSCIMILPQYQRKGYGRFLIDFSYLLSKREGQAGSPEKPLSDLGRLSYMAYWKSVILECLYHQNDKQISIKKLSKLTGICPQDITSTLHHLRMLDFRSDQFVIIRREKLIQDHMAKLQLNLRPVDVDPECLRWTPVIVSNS
Chain of KAT-8 (Q9H7Z6 other isoform, or with tags, fused parts or gaps): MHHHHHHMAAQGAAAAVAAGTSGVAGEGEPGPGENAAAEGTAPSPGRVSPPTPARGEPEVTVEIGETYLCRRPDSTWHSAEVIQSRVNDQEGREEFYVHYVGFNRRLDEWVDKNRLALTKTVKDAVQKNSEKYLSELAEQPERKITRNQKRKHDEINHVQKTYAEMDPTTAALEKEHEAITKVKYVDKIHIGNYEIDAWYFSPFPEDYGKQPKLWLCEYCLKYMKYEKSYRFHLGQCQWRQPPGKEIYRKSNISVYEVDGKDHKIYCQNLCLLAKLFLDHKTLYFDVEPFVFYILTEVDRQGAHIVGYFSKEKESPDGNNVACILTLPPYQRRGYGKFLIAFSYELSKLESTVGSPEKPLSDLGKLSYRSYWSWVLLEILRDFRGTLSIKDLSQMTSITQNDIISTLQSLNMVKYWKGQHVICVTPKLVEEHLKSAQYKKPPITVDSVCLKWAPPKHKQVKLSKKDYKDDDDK
Chain of KAT-5 (Q92993 other isoform, or with tags, fused parts or gaps): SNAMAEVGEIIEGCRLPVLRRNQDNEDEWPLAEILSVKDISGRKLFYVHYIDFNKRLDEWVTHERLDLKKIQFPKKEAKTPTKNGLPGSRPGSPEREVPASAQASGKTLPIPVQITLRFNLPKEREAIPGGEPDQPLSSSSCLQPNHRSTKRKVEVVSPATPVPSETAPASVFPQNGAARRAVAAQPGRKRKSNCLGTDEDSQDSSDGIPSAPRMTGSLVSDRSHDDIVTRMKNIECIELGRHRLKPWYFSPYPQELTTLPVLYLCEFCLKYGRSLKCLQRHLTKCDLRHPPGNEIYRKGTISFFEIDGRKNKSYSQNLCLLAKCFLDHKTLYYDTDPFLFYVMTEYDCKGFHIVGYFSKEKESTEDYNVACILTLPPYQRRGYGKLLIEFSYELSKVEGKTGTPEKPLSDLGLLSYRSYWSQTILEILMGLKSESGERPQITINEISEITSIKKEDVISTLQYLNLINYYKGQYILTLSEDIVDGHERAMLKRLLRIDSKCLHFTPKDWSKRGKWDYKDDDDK

SMILES	IC50 (KAT-8)	IC50 (KAT-5)	IC50 (KAT-7)	IC50 (KAT-6A)
Cn1cnc(-c2cc(Cl)c(F)c(C(=O)NNS(=O)(=O)C3COC3)c2)c1 [Compound I-42]	> 100 µM	> 100 µM	< 10 µM	> 100 µM
CCn1cc(-c2cc(Cl)c(F)c(C(=O)NNS(=O)(=O)C3CCCCC3)c2)nc1C [Compound I-46]	> 100 µM	10 to 50 µM	< 10 µM	50 to 100 µM
CCn1cc(S(=O)(=O)NNC(=O)c2cc(-c3cn(C)cn3)cc(Cl)c2F)cn1 [Compound I-52]	> 100 µM	10 to 50 µM	< 10 µM	10 to 50 µM
Cn1cnc(-c2cc(Cl)c(F)c(C(=O)NNS(=O)(=O)CC3CCCN(S(C)(=O)=O)C3)c2)c1 (centres unmarked) [Compound I-53]	50 to 100 µM	< 10 µM	< 10 µM	< 10 µM
Cc1ncc(-c2cc(Cl)c(F)c(C(=O)NNS(=O)(=O)C3CCOCC3)c2)n1C [Compound I-54]	> 100 µM	50 to 100 µM	> 100 µM	> 100 µM
Cn1cc(-c2cc(Cl)c(F)c(C(=O)NNS(=O)(=O)CC3CCCCC3)c2)nn1 [Compound I-55]	10 to 50 µM	< 10 µM	< 10 µM	< 10 µM
COCCC(=O)N1CCC(CS(=O)(=O)NNC(=O)c2cc(-c3cn(C)cn3)cc(Cl)c2F)C1 (centres unmarked) [Compound I-56]	10 to 50 µM	10 to 50 µM	< 10 µM	10 to 50 µM
CC(=O)N1CCC(CS(=O)(=O)NNC(=O)c2cc(-c3cn(C)cn3)cc(Cl)c2F)C1 (centres unmarked) [Compound I-57]	10 to 50 µM	10 to 50 µM	< 10 µM	10 to 50 µM
Cc1ncc(-c2cc(Cl)c(F)c(C(=O)NNS(=O)(=O)C3CCCCC3)c2)n1C [Compound I-59]	> 100 µM	10 to 50 µM	> 100 µM	> 100 µM
CCn1c(-c2cc(Cl)c(F)c(C(=O)NNS(=O)(=O)C3CCCCC3)c2)cnc1C [Compound I-61]	> 100 µM	> 100 µM	10 to 50 µM	> 100 µM
COCC(=O)N1CCC(CS(=O)(=O)NNC(=O)c2cc(-c3cn(C)cn3)cc(Cl)c2F)C1 (centres unmarked) [Compound I-62]	10 to 50 µM	10 to 50 µM	< 10 µM	10 to 50 µM
Cn1cnc(-c2cc(Cl)c(F)c(C(=O)NNS(=O)(=O)CC3CCN(S(C)(=O)=O)C3)c2)c1 (centres unmarked) [Compound I-63]	10 to 50 µM	< 10 µM	< 10 µM	< 10 µM
CCNC(=O)N1CCC(CS(=O)(=O)NNC(=O)c2cc(-c3cn(C)cn3)cc(Cl)c2F)C1 (centres unmarked) [Compound I-64]	10 to 50 µM	< 10 µM	< 10 µM	< 10 µM
Cn1cnc(-c2cc(Cl)c(F)c(C(=O)NNS(=O)(=O)c3cnn(C)c3)c2)c1 [Compound I-65]	> 100 µM	50 to 100 µM	< 10 µM	10 to 50 µM
CN(C)C(=O)N1CCC(CS(=O)(=O)NNC(=O)c2cc(-c3cn(C)cn3)cc(Cl)c2F)C1 (centres unmarked) [Compound I-66]	10 to 50 µM	< 10 µM	< 10 µM	< 10 µM
Cn1cnc(-c2cc(Cl)c(F)c(C(=O)NNS(=O)(=O)c3cn(C)nn3)c2)c1 [Compound I-69]	10 to 50 µM	10 to 50 µM	< 10 µM	10 to 50 µM
Cn1cnc(-c2cc(Cl)c(F)c(C(=O)NNS(=O)(=O)c3cnnn3C)c2)c1 [Compound I-71]	10 to 50 µM	10 to 50 µM	< 10 µM	10 to 50 µM
Cn1cnc(-c2cc(Cl)c(F)c(C(=O)NNS(=O)(=O)c3cnn(C)n3)c2)c1 [Compound I-72]	10 to 50 µM	10 to 50 µM	< 10 µM	< 10 µM
CCC(=O)N1CCC(CS(=O)(=O)NNC(=O)c2cc(-c3cn(C)cn3)cc(Cl)c2F)C1 (centres unmarked) [Compound I-73]	10 to 50 µM	< 10 µM	< 10 µM	10 to 50 µM
CCS(=O)(=O)N1CCC(CS(=O)(=O)NNC(=O)c2cc(-c3cn(C)cn3)cc(Cl)c2F)C1 (centres unmarked) [Compound I-75]	10 to 50 µM	< 10 µM	< 10 µM	< 10 µM

More lines, now with the values ahead:

IC50 (KAT-8)	IC50 (KAT-5)	IC50 (KAT-7)	IC50 (KAT-6A)	SMILES
> 100 µM	10 to 50 µM	50 to 100 µM	< 10 µM	O=C(NNS(=O)(=O)CC1CCOCC1)c1cc(-n2cccn2)cc(Cl)c1F [Compound I-41]
> 100 µM	10 to 50 µM	50 to 100 µM	< 10 µM	Cc1ccn(-c2cc(Cl)c(F)c(C(=O)NNS(=O)(=O)CC3CCOCC3)c2)n1 [Compound I-43]
> 100 µM	50 to 100 µM	> 100 µM	> 100 µM	O=C(NNS(=O)(=O)CC1CCCCC1)c1cc(-n2ccnc2)cc(Cl)c1F [Compound I-44]
> 100 µM	> 100 µM	50 to 100 µM	> 100 µM	Cc1ncn(C)c1-c1cc(Cl)c(F)c(C(=O)NNS(=O)(=O)CC2CCCCC2)c1 [Compound I-45]
> 100 µM	< 10 µM	> 100 µM	50 to 100 µM	O=C(NNS(=O)(=O)CC1CCOCC1)c1cc(-n2ccnc2)cc(Cl)c1F [Compound I-47]
> 100 µM	< 10 µM	< 10 µM	< 10 µM	O=C(NNS(=O)(=O)CC1CCOCC1)c1cc(-c2cscn2)cc(Cl)c1F [Compound I-48]
> 100 µM	> 100 µM	> 100 µM	> 100 µM	Cc1cn(-c2cc(Cl)c(F)c(C(=O)NNS(=O)(=O)CC3CCOCC3)c2)cn1 [Compound I-49]
> 100 µM	< 10 µM	10 to 50 µM	< 10 µM	Cc1cn(-c2cc(Cl)c(F)c(C(=O)NNS(=O)(=O)CC3CCOCC3)c2)nn1 [Compound I-50]
10 to 50 µM	< 10 µM	< 10 µM	< 10 µM	Cn1cnc(-c2cc(Cl)c(F)c(C(=O)NNS(=O)(=O)CC3CCCCC3)c2)c1 [Compound I-51, N′-(3-chloro-2-fluoro-5-(1-methyl-1H-imidazol-4-yl)benzoyl)-1-cyclohexyl methanesulfonohydrazide]
> 100 µM	> 100 µM	> 100 µM	> 100 µM	Cc1nn(C)c(C)c1-c1cc(Cl)c(F)c(C(=O)NNS(=O)(=O)CC2CCOCC2)c1 [Compound I-58]
> 100 µM	10 to 50 µM	10 to 50 µM	10 to 50 µM	Cn1cc(-c2cc(Cl)c(F)c(C(=O)NNS(=O)(=O)CC3CCOCC3)c2)nn1 [Compound I-67]
10 to 50 µM	< 10 µM	10 to 50 µM	10 to 50 µM	O=C(NNS(=O)(=O)CC1CCOCC1)c1cc(-c2cocn2)cc(Cl)c1F [Compound I-68]
10 to 50 µM	10 to 50 µM	10 to 50 µM	10 to 50 µM	Cc1nc(-c2cc(Cl)c(F)c(C(=O)NNS(=O)(=O)CC3CCOCC3)c2)cs1 [Compound I-70]
10 to 50 µM	10 to 50 µM	10 to 50 µM	10 to 50 µM	Cc1ncn(-c2cc(Cl)c(F)c(C(=O)NNS(=O)(=O)CC3CCOCC3)c2)n1 [Compound I-74]
10 to 50 µM	10 to 50 µM	10 to 50 µM	10 to 50 µM	Cc1ncn(-c2cc(Cl)c(F)c(C(=O)NNS(=O)(=O)C3CCOCC3)c2)n1 [Compound I-77]
